Assay results as given in PubChem BioAssay AID1963871 (Molecular Pharmacology Branch, DTP, NCI, 2024).

Test system: KRAS-mutant PDC multicell tumor spheroid viability
Experiment: Anticancer human tumor 521955-158-R2-J5-PDC patient-derived pancreatic carcinoma cell line growth inhibition [KRAS2]
Details: for IC50: curve of first compound; for viability, T/C: stronger effect = lower value
Procedure, shortened: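 KRAS-mutant tumor cells were grown as spheroids with HUVEC endothelial cells and human MSCs as stroma. Targeted agents were tested alone and with KRAS pathway inhibitors. Doses started at or near clinical Cmax, or 10 microM, descending half-log.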
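Also: viability read after seven days of drug exposure.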

With `CC1OCC2(CCN(c3cnc(Sc4ccnc(N)c4Cl)c(N)n3)CC2)C1N` (stereo not given) + COc1cc2nc(C)nc(NC(C)c3cc(N)cc(C(F)(F)F)c3)c2cc1OC1CCOC1 the IC50 (second compound 0.1 µM) was > 10 µM, the IC50 (second compound 0.316 µM) was > 10 µM and the IC50 (second compound 1 µM) was > 10 µM. For the same molecule, the IC50 (second compound 3.16 µM) was > 10 µM, the IC50 (second compound 10 µM) was 4.27 µM and the viability, T/C (second compound 0.1 µM, first compound 0.0316 µM) was 87.6%. For the same molecule, the viability, T/C (second compound 0.1 µM, first compound 0.1 µM) was 83.6%, the viability, T/C (second compound 0.1 µM, first compound 0.316 µM) was 77.6% and the viability, T/C (second compound 0.1 µM, first compound 1 µM) was 75.9%. For the same molecule, the viability, T/C (second compound 0.1 µM, first compound 3.16 µM) was 72.5%, the viability, T/C (second compound 0.1 µM, first compound 10 µM) was 56.6% and the viability, T/C (second compound 0.316 µM, first compound 0.0316 µM) was 82.3%. The viability, T/C (second compound 0.316 µM, first compound 0.1 µM) was 97.1%, the viability, T/C (second compound 0.316 µM, first compound 0.316 µM) was 85.9% and the viability, T/C (second compound 0.316 µM, first compound 1 µM) was 71.9%. It also gave a viability, T/C (second compound 0.316 µM, first compound 3.16 µM) of 64.2%, a viability, T/C (second compound 0.316 µM, first compound 10 µM) of 55.4% and a viability, T/C (second compound 1 µM, first compound 0.0316 µM) of 105%. For the same molecule, the viability, T/C (second compound 1 µM, first compound 0.1 µM) was 92.1%, the viability, T/C (second compound 1 µM, first compound 0.316 µM) was 82.4% and the viability, T/C (second compound 1 µM, first compound 1 µM) was 74.4%. The viability, T/C (second compound 1 µM, first compound 3.16 µM) was 72.1%, the viability, T/C (second compound 1 µM, first compound 10 µM) was 62.5% and the viability, T/C (second compound 3.16 µM, first compound 0.0316 µM) was 111%. It also gave a viability, T/C (second compound 3.16 µM, first compound 0.1 µM) of 102%, a viability, T/C (second compound 3.16 µM, first compound 0.316 µM) of 88% and a viability, T/C (second compound 3.16 µM, first compound 1 µM) of 83.8%. It also gave a viability, T/C (second compound 3.16 µM, first compound 3.16 µM) of 80.3%, a viability, T/C (second compound 3.16 µM, first compound 10 µM) of 84.6% and a viability, T/C (second compound 10 µM, first compound 0.0316 µM) of 90.4%. For the same molecule, the viability, T/C (second compound 10 µM, first compound 0.1 µM) was 84.7%, the viability, T/C (second compound 10 µM, first compound 0.316 µM) was 76.9% and the viability, T/C (second compound 10 µM, first compound 1 µM) was 65.9%. It also gave a viability, T/C (second compound 10 µM, first compound 3.16 µM) of 58.5% and a viability, T/C (second compound 10 µM, first compound 10 µM) of 35%.
